Data on two substances can be found in US9388215B2, “Compositions and methods of using islet neogenesis peptides and analogs thereof” (SHENZHEN HIGHTIDE BIOPHARMACEUTICAL, LTD., priority 2013, dated 2016).

One data set relates to pancreatic islets. Description: Glucose-stimulated insulin secretion (GSIS) of isolated islets. The format is cell-based, rat. To be noted: 12.0 mM glucose; 10 μg/mL peptide or 100 nM GLP-1; 60 min; FIG. 8. As for the experimental part: The pancreases were procured from male adult Sprague-Dawley (SD) rats. After 7 days acclimation, the animals were sacrificed by cervical dislocation and the entire pancreas was removed and digested with collagenase to isolate islets. After digestion, islets were maintained at 37° C. in RPMI 1640 (Carlsbad Calif., USA) pH 7.4, containing 10% (v/v) fetal calf serum, 1% penicillin/streptomycin, and 10 mM glucose in a humid atmosphere (5% CO2/95% O2), without the addition of any compound (control), or with the addition of 100 nM glucagon like peptide-1 (GLP-1); or 10 μg/mL Peptide 1, Peptide 12, or Peptide 16, as summarized in Table 4 below. Cultured islets were rinsed in Krebs-Ringer bicarbonate buffer (KRB), pH 7.4, previously gassed with a mixture of CO2/O2 (5/95%), and pre-incubated in 1.0 ml of KRB containing 0.5% (w/v) BSA and 1.5 mM glucose at 37° C. for 45 min. After this period, groups of 5 islets were incubated in 0.6 ml KRB with the addition of 1.5 or 12.0 mM glucose, with or without the addition of peptides for 60 min. At the end of the incubation period, aliquots of the medium were collected for insulin quantitation.

A short description of data set [1]: Peptide concentration in plasma and pancreas 30 min post dose. Format: in vivo, rat. To be noted: male, Sprague-Dawley, rat, in vivo, sc, 25 mg/kg, Peptide concentration. The protocol: To further characterize the pharmacokinetic (PK) properties of peptides, peptide concentration in pancreas—the target organ, was determined 30 min post dose. Briefly, INGAP-PP (Peptide 1), Peptide 12, or Peptide 31 was dissolved in sterile normal saline and then was administered via subcutaneous (sc) bolus at the dose level of 25 mg/kg to male Sprague-Dawley (SD) rats. Five animals in each group were used for blood and pancreas collection at the time point of 30 min post-dose. Blood samples (approximately 400 μL) were collected and placed into tubes containing EDTA-K2 and centrifuged at 8000 rpm for 6 minutes at 4° C. to separate plasma from the samples. After blood extraction and animal sacrifice, the pancreas was removed immediately from each animal, cleared of fat and lymph nodes, weighed, and placed into 5 fold volume of ice cold sterile normal saline with protease inhibitor cocktail (Merck Millipore, catalogue #539137) to homogenize with a homogenizer.
The peptide concentration of the plasma and pancreatic homogenate was determined immediately using tandem mass spectrometry (LC-MS/MS) analysis and the results are presented in Table 8.

A short description of data set [2]: Pharmacokinetics in SD rats after single subcutaneous dose (Example X). The format is in vivo, rat. To be noted: sc, 25 mg/kg. The protocol:
After 7 days acclimation, a total of 15 male Sprague-Dawley (SD) rats (body weight: 230 to 270 g) in good health from Sino-British SIPPR/BK Lab Animal Ltd, Shanghai, were used in the study. All peptides, Peptide 1, Peptide 12, Peptide 16, Peptide 29 or Peptide 31, were dissolved in sterile normal saline respectively to yield the desired final concentrations and were administered via single subcutaneous (sc) dose.
Three animals in each group were used for blood collection at the time point of 5 min, 15 min, 30 min, 1 h, 2 h, 4 h, 6 h, 8 h and 24 h post-dose. Blood samples (approximately 400 μL) were collected and placed into tubes containing EDTA-K2 (dipotassium ethylene diamine tetraacetic acid) and centrifuged at 8000 rpm for 6 minutes at 4° C. to separate plasma from the samples. The resulting plasma was stored frozen at −80° C. until being analyzed.
Plasma concentrations of peptides were determined using tandem mass spectrometry (LC-MS/MS) analysis. A non-compartmental module of WinNonlin® Professional 5.2 (Pharsight; St. Louis Mo.) was used to calculate PK parameters. AUC(0-t) represents area under the curve from the time of dosing to the time of the last observation, the AUC(0-∞) represents area under the curve from the time of dosing to infinity, and the Cmax represents maximum concentration detected.

A short description of data set [3]: Pharmacokinetics in mouse, subcutaneous bolus. The format is in vivo. To be noted: male, C57BL/6, mouse, in vivo, sc, 25 mg/kg. The protocol:
(§1) After 7 days acclimation, male Sprague-Dawley (SD) rats weighing 210-250 g, or male C57BL/6 mice, weighing 19-24 g, in good health were used in the study. Peptide 1, Peptide 12 and Peptide 16 were dissolved in sterile normal saline and then they were injected via subcutaneous (sc) bolus or intravenous (iv) bolus at the dose level of 25 mg/kg. Three animals in each group were used for blood collection at the time point of 5 min, 15 min, 30 min, 1 h, 2 h, 4 h, 6 h, 8 h and 24 h post-dose. Blood samples (approximately 400 μL) were collected and placed into tubes containing EDTA-K2 and centrifuged at 8000 rpm for 6 minutes at 4° C. to separate plasma from the samples. The resulting plasma was stored frozen at −80° C. until being analyzed. Plasma concentrations of peptides were determined using tandem mass spectrometry (LC-MS/MS) analysis. A non-compartmental module of WinNonlin® Professional 5.2 (Pharsight; St. Louis Mo.), was used to calculate PK parameters. The abbreviation AUC(0-t) represents area under the curve from the time of dosing to the time of the last observation, the AUC(0-∞) represents area under the curve from the time of dosing to infinity, and the Cmax represents maximum concentration detected.

The next data set relates to normal C57BL/6J mice. Briefly: Induction of extra islet insulin positive β cell clusters (EIC) in normal C57BL/6J mice. Format: in vivo, mouse. To be noted: analog 5 mg/kg vs INGAP-PP 50 mg/kg, 10 days. As for the experimental part:
After a 1-week acclimation, female C57BL/6J mice were randomly divided into 6 groups (n=5 per group). The control group received 10 mL/kg sterile normal saline via subcutaneous injection for 10 consecutive days. The other five groups received INGAP-PP (Peptide 1) or INGAP-PP analogs Peptide 12, Peptide 16, Peptide 29 or Peptide 31 at a dose of 50 mg/kg or 5 mg/kg per day, respectively, for the same period. On day 11, the pancreas was removed from each animal, cleared of fat and lymph nodes, weighed, and fixed in 10% neutral buffered formalin (NBF) for no longer than 24 hours before processing for morphometric analysis.
Immunohistochemistry analysis was used to assess the islet neogenic activities of peptides by measuring the number and area of extra islet insulin positive β cell clusters (EIC) of pancreatic tissues harvested from each individual group post 10 day treatment. EIC is indicative of islet neogenesis, as previously described by Lipsett and Finegood (Diabetes 51:1834-1841 (2002)).

The format of data set [4] is physicochemical. To be noted: pH 7.4. The protocol: Peptide stability in buffers was tested for INGAP-PP and selected analogs. 10 mg/mL of Peptide 1, Peptide 12, Peptide 16, Peptide 29 or Peptide 31 was dissolved in isotonic buffers with pH ranging from 4.0 to 8.0. […] Peptide 12 and Peptide 29 were stable in an isotonic phosphate buffer (pH 7.4) for more than 90 days at 4° C. (there was no sign of degradation at 90 days sample check point), and 60 days at 25° C.

The nature of data set [5]: Pharmacokinetics in rat, intravenous bolus. The format is in vivo. To be noted: male, Sprague-Dawley, rat, in vivo, iv, 25 mg/kg. The protocol: as §1
Data set [6] is described as follows: Pharmacokinetics in rat, subcutaneous bolus (Example VII). The format is in vivo. To be noted: male, Sprague-Dawley, rat, in vivo, sc, 25 mg/kg. As for the experimental part: as §1
A short description of data set [7]: Peptide stability in rat plasma. The format is in vitro ADME. To be noted: 100 μg/mL, 37° C.; FIG. 12, 13. The protocol: (§2) The stability of peptides was also tested in rat, mouse and human plasma. Briefly, a certain amount of peptides and eucatropine powder (positive control) was accurately weighed. Test compounds were dissolved in 50% methanol-water solution and diluted to 20 mg/mL, and eucatropine was dissolved in dimethylsulfoxide (DMSO) and diluted to 10 mM, as a stock solution. Eucatropine stock solution was diluted to 0.2 mM with DMSO as a working solution. A stop reagent was prepared containing 200 ng/mL midazolam and tolbutamide in acetonitrile. A volume of 300 μL of stop solution was added to each well of a 96-well deep-well plate placed on ice beforehand.
(§3) For the stability studies, peptides and eucatropine were spiked into plasma respectively, mixed well, and then 100 μL of each mixture solution was transferred into the pre-cooled stop reagent as 0 time point sample. The remaining mixtures were incubated in a 37° C. water bath with shaking at 100 rpm (n=2). The final incubation concentration was 1 μM for eucatropine and 100 μg/mL for all test compounds.
(§4) At desired time points, 100 μL of incubation mixture was transferred to the stop reagent to precipitate proteins. Samples were vortexed and centrifuged at RCF 5000×g for 10 minutes, and supernatant was transferred to a test plate. The samples were analyzed by LC-MS/MS.
(§5) Slope was calculated by plotting the natural logarithm of the percentage of remaining amount of test compounds and time, and T1/2 was calculated in accordance with the following formula.
For stability in rat plasma, the incubation time was 0, 15, 30, 60 and 120 min for Peptide 1 and eucatropine, and 0, 15, 30, 60, 120, and 240 min for Peptide 12, Peptide 16, Peptide 29 and Peptide 31.
In another stability study in rat plasma, the incubation time was 0, 30, 60 120 and 240 min for Peptide 2, Peptide 52, Peptide 64 and eucatropine.

A short description of data set [8]: Peptide stability in human plasma. The format is in vitro ADME. To be noted: 100 μg/mL, 37° C.; FIG. 4, 15. The protocol: as §2, with “in” for “in rat,”
(§6) For the stability studies, peptides and eucatropine were spiked into plasma respectively, mixed well, and then 100 μL of each mixture solution was transferred into the pre-cooled stop reagent as 0 time point sample. The remaining mixtures were incubated in a 37° C. water bath with shaking at 100 rpm (n=2). The final incubation concentration was […] for eucatropine and 100 μg/mL for all test compounds.
as §4, §5
For stability in human plasma, the incubation time was 0, 30, 60 and 120 min for Peptide 1, Peptide 12, Peptide 16 and eucatropine.
The stability of peptides was also tested in rat, mouse and human plasma. Briefly, a certain amount of peptides and eucatropine powder (positive control) was accurately weighed. Test compounds were dissolved in 50% methanol-water solution and diluted to 20 mg/mL, and eucatropine was dissolved in dimethylsulfoxide (DMSO) and diluted to 10 mM, as a stock solution. Eucatropine stock solution was diluted to 0.2 mM with DMSO as a working solution. […]

A short description of data set [9]: Peptide stability in mouse plasma. Format: in vitro ADME. To be noted: 100 μg/mL, 37° C.; FIG. 3, 5, 14. The protocol:
as §2, with “in” for “in rat,”
as §6, §4, §5
For stability in mouse plasma, the incubation time was 0, 5, 15, 30 and 60 min for Peptide 1 and eucatropine; 0, 15, 30, 60, 120, 240 and 480 min for Peptide 12, Peptide 16 and Peptide 29.
In another stability study in mouse plasma, the incubation time was 0, 30, 60 and 120 min for Peptide 2 and eucatropine; 0, 30, 60, 120, 240 and 960 min for Peptide 52 and Peptide 54.
as §2, §3
For stability in mouse plasma, the incubation time was 0, 15, 30, 60 and 120 min for Peptide 1 and eucatropine; 0, 15, 30, 60, 120, and 240 min for Peptide 31.

The mark [10] stands for this setting: male, Sprague-Dawley, rat, in vivo.

As a reminder, the AUC(0-t) is the area under the concentration-time curve up to a stated or last time point. As usually defined, the Cmax is the maximum level reached in the sampled fluid or tissue. For “Ac-IGLHDPSHGTLPAGS-OH [Peptide 12, Ac-IGLHDPSHGTLPAGS-OH]”, the “glucose-stimulated insulin release vs islets without peptide” value with pancreatic islets is on record as “released significantly more insulin than those cultured without the addition of peptides”. In addition, the level at 0.5 h stood at 877 ± 261 ng/mL in [1] (Pancreas) and 5370 ± 981 ng/mL in data set [1] (Plasma). The AUC(0-inf) in [2] (setting [10]) came to 11200 ± 1210 ng·h/mL; in [3], 5890 ng·h/mL; in data set [5] it was 12600 ng·h/mL; in data set [6], 8480 ng·h/mL. For the same substance, the AUC(0-t) amounted to 11100 ± 1370 ng·h/mL in data set [2] (setting [10]), 5870 ng·h/mL in [3], 12600 ng·h/mL in data set [5] and 8420 ng·h/mL in data set [6]. In addition, the Cmax in [2] (setting [10]) was 21400 ± 1350 ng/mL; in [3], 11600 ng/mL; in data set [5] it was 44300 ng/mL; in data set [6], 14000 ng/mL. Moreover, the “islet neogenesis efficacy relative to INGAP-PP” value in the data set on normal C57BL/6J mice was “comparable or improved efficacy was achieved at a dose one tenth of INGAP-PP”. The “time stable in isotonic phosphate buffer (pH 7.4) at 4° C.” value in [4] is recorded as “more than 90 days”. The “time stable in isotonic phosphate buffer (pH 7.4) at 25° C.” value in data set [4] was found to be 60 days.
“Ac-IGLHDPSHGTLPAGS-NH2 [Peptide 29, Ac-IGLHDPSHGTLPAGS-NH2]”: the “stability in rat plasma” value in [7] is “exhibited good stability in rat plasma and were more stable than INGAP-PP”. Besides, the AUC(0-t) in data set [2] (plasma, male Sprague-Dawley rat, subcutaneous, read-out: AUC(0-t)) came out at 14400 ± 1010 ng·h/mL. Besides, the AUC(0-inf) in data set [2] (plasma, male Sprague-Dawley rat, subcutaneous, read-out: AUC(0-∞)) was found to be 14400 ± 1000 ng·h/mL. Also, the highest concentration (Cmax) in [2] (plasma, male Sprague-Dawley rat, subcutaneous, read-out: Cmax) amounted to 16300 ± 2520 ng/mL. In addition, the “stability in human plasma” value in [8] was “exhibited good stability in human plasma and were significantly more stable than INGAP-PP”. Moreover, in data set [4], the “time stable in isotonic phosphate buffer (pH 7.4) at 4° C.” value is on record as “more than 90 days” and the “time stable in isotonic phosphate buffer (pH 7.4) at 25° C.” value stood at 60 days. In [9], the “stability in mouse plasma” value is “exhibited good stability in mouse plasma and were more stable than INGAP-PP”.
